Laboratory results reported in patent publication US11022604B2, “Dock derived compound against laminin receptor (37 LR) and uses thereof” (Purdue Research Foundation, priority 2017, dated 2021).

Experiments:
[1] = test system: LNCaP androgen dependent metastatic prostate cancer cells; assay: Cell viability screen (CCK-8), LNCaP cells; format: cell-based; settings: Homo sapiens, CCK-8, 96 hours, read-out: IC50, inhibition of cell viability
Protocol: FIGS. 2A-2H. Dose response curves. Does response curves for cell lines treated with 6, 10.5, 18.6, 32.4, 57.5 and 100 μM of compound (log) for 96 hours using % cell viability derived from CCK-8 absorbance readings at 450 nm (n=3, mean±SEM). A DMSO equivalent control (n=2±SEM) was also included for each cell line tested: Ea.hy.926 endothelial cells (Endo), LNCaP androgen dependent metastatic prostate cancer cells, TC2-Ras mouse prostate cancer cells, PC-3 androgen independent metastatic prostate cancer cells, and SH-SY5Y neruoblastoma cells. […]
Cell Viability Screen. […] Cell viability was measured by using the cell counting kit-8 (CCK-8, Dojindo). […] CCK-8 absorbance was measured at 450 nm using a GloMax Multimode Reader (Promega). Readings were performed the day after seeding to normalize for variations in cell seeding and after 96 hours of compound treatment. After each reading, CCK-8 media was removed and replaced with media containing compound as described previously. […] As described previously, an initial baseline CCK-8 reading was performed at 24 hours post seeding to correct for variations in seeding density. First, 450 nm values for each well were subtracted from media only readings to correct for baseline absorbance. Then, the 96 hour readings were normalized to their respective 24 hour readings to control for seeding variation. […]

PC-3 cells = assay: RT-qPCR of PEDF-signaling associated genes; format: cell-based; settings: PC-3, 50 μM, 48 hours
Protocol: Expression of PEDF-signaling associated genes from PC-3 cells treated with 50 μM C3, compared to DMSO control and normalized to GAPDH (n=3, mean±SEM). A Holm-Sidak multiple t test was used for statistical analysis (*p<0.05,**O<0.01, ***<0.001). […] Average tube count for 0.1% DMSO, 0.5% DMSO, and 1, 10 and 50 μM treatment with C3 (n=7, mean±SEM). 1 and 10 μM C3 were compared with respective 0.5% DMSO (unpaired two-tailed t test, ****<0.0001). 50 μM C3 was compared with respective 0.1% DMSO (unpaired two-tailed t test p<0.0001).
RT-qPCR. PC-3 cells were seeded in 6 well plates at 3×10^5 cells per well and incubated with 50 μM C3 or DMSO equivalent in 1×RPMI-1640, 1× anti-anti, and 2% FBS (ThermoFisher) for 48 hours. PC-3 cells were lifted using 20 mM EDTA in 1×DPBS and pelleted before isolating total RNA using the RNeasy Mini Kit (Qiagen). 1 μg of RNA per sample was reverse transcribed using the amfiRivert cDNA synthesis master mix (GenDEPOT). Real-time PCR wells contained 1 μL cDNA template, 2×SYBR Green Master Mix (Applied Biosystems), and 20 μM forward and reverse primers. Primer sequences are provided in Table 2. qRT-PCR was performed on an Eppendorf Realplex 2S (Eppendorf), using: 40×95° C. for 3 mins; 95° C. for 3 s; 60° C. for 30 s; 72° C. for 8 s and analyzed using EP Realplex software (version 2.2). Fold changes were normalized to GAPDH using the ddCT method.
Genes involved in migration/invasion and/or extracellular matrix (ECM) communication also were assayed.

O=C(c1cc(F)cc2c1OCOC2)N1CCN(C2c3ccccc3-c3ccccc32)CC1 [Compound C3, [4-(9h-fluoren-9-yl)piperazino](6-fluoro-4h-1,3-benzodioxin-8-yl)methanone]
IC50 [1]: 10.3 µM | VEGF mRNA, fold change (PC-3 cells): ~4 FC | VEGFR2 transcription, fold change (PC-3 cells): > −15 fold change | thrombospondin-1 (THBS1) mRNA, fold change (PC-3 cells): > 10 FC
